Target: T1, Lipoxygenase in Kaninchen-PMN-Leukozyten (Oryctolagus cuniculus, UniProt G1SNX0)
T1 construct: Die polymorphkernigen Leukozyten des Menschen und des Kaninchens metabolisieren die Arachidonsäure; endogenous in cells; host or cells: rabbit polymorphonuclear (PMN) leukocytes
T1 sequence (G1SNX0 1-674): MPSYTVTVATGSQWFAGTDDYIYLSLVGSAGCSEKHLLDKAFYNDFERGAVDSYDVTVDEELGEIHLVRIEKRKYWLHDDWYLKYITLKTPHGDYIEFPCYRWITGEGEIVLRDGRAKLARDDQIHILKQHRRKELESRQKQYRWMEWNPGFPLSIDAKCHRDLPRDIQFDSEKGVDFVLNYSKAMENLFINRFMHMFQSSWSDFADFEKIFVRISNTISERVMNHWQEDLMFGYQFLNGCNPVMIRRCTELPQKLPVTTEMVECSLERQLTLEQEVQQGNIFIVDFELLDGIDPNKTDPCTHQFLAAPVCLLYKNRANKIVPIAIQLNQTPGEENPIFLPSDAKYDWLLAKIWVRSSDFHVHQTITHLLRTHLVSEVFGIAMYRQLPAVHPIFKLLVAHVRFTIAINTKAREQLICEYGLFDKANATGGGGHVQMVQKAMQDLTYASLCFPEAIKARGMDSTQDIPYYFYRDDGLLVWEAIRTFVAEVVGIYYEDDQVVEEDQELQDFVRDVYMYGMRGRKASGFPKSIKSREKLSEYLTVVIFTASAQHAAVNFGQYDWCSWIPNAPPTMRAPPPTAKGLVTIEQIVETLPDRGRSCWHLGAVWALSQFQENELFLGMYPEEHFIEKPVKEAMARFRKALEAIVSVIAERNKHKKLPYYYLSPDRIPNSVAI
Assay: Inhibition of lipoxygenase (release of 5-HETE and leukotriene B4) in rabbit PMN leukocytes
Type: cell-based
Description: Analog den vorstehenden Ausführungen lassen sich die lipoxygenasehemmenden Eigenschaften der erfindungsgemäßen Verbindungen auch an Leukozyten nachweisen.
Die polymorphkernigen Leukozyten des Menschen und des Kaninchens metabolisieren die Arachidonsäure zu 5-Hydroxy-5,8,11,14-eikosatetraensäure (5-HETE) und Leukotrien B4 (5S, 12R-Dihydroxy-6 cis, 8,10-trans-14 ciseikosatetraensäure). Die Hemmung der Freisetzung von 5-HETE und Leukotrien B4 aus den Leukozyten stellt ein Maß für den lipoxygenasehemmenden Effekt der erfindungsgemäßen Verbindungen dar. (Vergl. Tab. 1) Der Test mit den Humanleukozyten wurde nach Borgeat und Samuelsson (j. Biol. Chem. 254; 2643, 1979 und Proc. Natl. Acad. Sci. USA, 76, 2148 1979), mit Kaninchenleukozyten nach Walker und .Parish (Inter. Archs. Allergy appl. Immun. 66, 83, 1981) durchgeführt.

| Minimale Konzentration für die Hemmung der Lipoxygenase in Kaninchen-PMN-Leukozyten | SMILES |
| --- | --- |
| 5x10^-7 - 10^-6 g/ml | CC1=C(C(=O)OCCC#N)Sc2ccccc2N1 [Beispiel 1, 3-Methyl-4H-1,4-benzothiazin-2-carbonsäure-(2-cyanethyl)-ester] |
| 5x10^-7 - 10^-6 g/ml | COC(=O)C1=C(C)Nc2ccccc2S1 [Beispiel 2] |
| 5x10^-7 - 10^-6 g/ml | CCOC(=O)C1=C(CC)Nc2ccccc2S1 [Beispiel 4] |
| 5x10^-7 - 10^-6 g/ml | CC1=C(C(=O)OC2CCCCC2)Sc2ccccc2N1 [Beispiel 5] |
| 5x10^-7 - 10^-6 g/ml | CSCCOC(=O)C1=C(C)Nc2ccccc2S1 [Beispiel 8] |
| 10^-6 g/ml | CCCCOC(=O)C1=C(C)Nc2ccccc2S1 [Beispiel 9] |
| 10^-6 g/ml | CC(=O)C1=C(C)Nc2ccccc2S1 [Beispiel 11] |
| 10^-6 g/ml | CC1=C(C(=O)OCCc2ccccc2)Sc2ccccc2N1 [Beispiel 12] |
| 5x10^-7 - 10^-6 g/ml | CC1=C(C(=O)OCc2ccccc2)Sc2ccccc2N1 [Beispiel 13] |
| 10^-6 g/ml | COc1ccc2c(c1)SC(C(=O)OCCC#N)=C(C)N2 [Beispiel 28] |
| 10^-6 g/ml | CSCCOC(=O)C1=C(C)Nc2ccc(C)cc2S1 [Beispiel 29] |
| 10^-6 g/ml | CCOC(=O)C1=CNc2ccc(OC)cc2S1 [Beispiel 32] |
| 5e-06 g/mL | CCN1C=C(C(=O)O)Sc2cc([N+](=O)[O-])ccc21 [Beispiel 37] |
| 5e-06 g/mL | CCN1C=C(C(=O)OC)Sc2cc([N+](=O)[O-])ccc21 [Beispiel 40] |

From EP0100527A1, “4H-1,4-benzothiazines for use as medicaments” (BAYER AG, priority 1982, dated 1984)
